Legend:
Type in all cases: cell-based
[1] = test system: Ba/F3 cells expressing del19/T790M/C797S (EGFR-DTC); test: Growth inhibition (GI50) of Ba/F3 cells expressing del19/T790M/C797S (EGFR-DTC), Celltiter glo; settings: Mus musculus, BaF3, 72 h
Outline: (§1)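 Antiproliferative activity was assessed in EGFR-mutant or wild-type Ba/F3 cells over 72 h at 37 °C with 5% CO2. Cell viability was determined by CellTiter-Glo, and GI50 taken as the compound concentration inhibiting growth by 50%.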

[2] = test system: Ba/F3 cells expressing L858R/T790M/C797S (EGFR-LTC); test: Growth inhibition (GI50) of Ba/F3 cells expressing L858R/T790M/C797S (EGFR-LTC), Celltiter glo; settings: Mus musculus, BaF3, 72 h
Method: In this experimental example, a determination was made as to whether the compounds prepared in Examples 1-283 have the ability to inhibit the growth of Ba/F3 cells expressing EGFR-wt, del19/T790M/C797S (EGFR-DTC), L858R/T790M/C797S (EGFR-LTC), del19/T790M (EGFR-DT), and L858R/T790M (EGFR-LT) variants.
The parental Ba/F3 cell line is a population of cells that are not introduced with EGFR variants. Specifically, 100 μl of a cell line expressing each variant was plated in a 96-well plate at a density of 100,000 cells/ml. 10-point, 4-fold serial dilutions of each compound were prepared, starting at 2 mM. After 4 h, 0.5 μl of the compound (0.5% DMSO) was added, followed by incubation at 37° C. and 5% CO2 for 72 h. After incubation, the number of viable cells was measured using a Celltiter glo assay kit (Promega) and the GI50 of the compound was determined. The term “GI50” refers to the molar concentration (μM) of the compound required for 50% growth inhibition of cells.

[3] = test system: parental Ba/F3 cell line; test: Growth inhibition (GI50) of the parental Ba/F3 cell line (not introduced with EGFR variants), Celltiter glo; settings: Mus musculus, BaF3, 72 h, parental Ba/F3 cells
Outline: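 Parental Ba/F3 cells (100,000 cells/ml) were treated with 10-point, 4-fold compound dilutions (0.5% DMSO; top stock 2 mM) for 72 h at 37 °C, 5% CO2. Viability was read by CellTiter-Glo; GI50 is the concentration (μM) giving 50% growth inhibition.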

[4] = test system: Ba/F3 cells expressing EGFR-wt; test: Growth inhibition (GI50) of Ba/F3 cells expressing EGFR-wt, Celltiter glo; settings: Mus musculus, BaF3, 72 h
Outline: as §1

| SMILES | GI50 [1] [µM] | GI50 [2] [µM] | GI50 [3] [µM] | GI50 [4] [µM] |
| --- | --- | --- | --- | --- |
| COc1nc(N2CCC(N3CCN(C)CC3)CC2)ccc1Nc1ncc(Cl)c(N(C)c2cc(Cl)c(Cl)cc2N(C)C(C)=O)n1 [Example 79, N-(4,5-dichloro-2-((5-chloro-2-((2-methoxy-6-(4-(4-methylpiperazin-1-yl)piperidin-1-yl)pyridin-3-yl)amino)pyrimidin-4-yl)(methyl)amino)phenyl)-N-methylacetamide] | 0.5 to 2 | 0.5 to 2 | 0.5 to 2 | 2 to 10 |
| COc1nc(N2CCC(N3CCN(C)CC3)CC2)ccc1Nc1ncc(Cl)c(Nc2cc(Cl)ccc2NS(C)(=O)=O)n1 [Example 81] | 0.5 to 2 | 0.5 to 2 | 0.5 to 2 | 2 to 10 |
| COc1cc(N2CCC(N3CCN(C)CC3)CC2)ccc1Nc1ncc(Cl)c(Nc2cc(Cl)ccc2NS(C)(=O)=O)n1 [Example 82, N-(4-chloro-2-((5-chloro-2-((2-methoxy-4-(4-(4-methylpiperazin-1-yl)piperidin-1-yl)phenyl)amino)pyrimidin-4-yl)amino)phenyl)methanesulfonamide] | 0.1 to 0.5 | 0.1 to 0.5 | 0.5 to 2 | 0.5 to 2 |
| COc1nc(N2CCC(N3CCN(C)CC3)CC2)c(C)cc1Nc1ncc(Cl)c(Nc2cc(Cl)ccc2NS(C)(=O)=O)n1 [Example 83, N-(4-chloro-2-((5-chloro-2-((2-methoxy-5-methyl-6-(4-(4-methylpiperazin-1-yl)piperidin-1-yl)pyridin-3-yl)amino)pyrimidin-4-yl)amino)phenyl)methanesulfonamide] | 0.1 to 0.5 | 0.1 to 0.5 | 2 to 10 | 0.5 to 2 |
| CN1CCN(C2CCN(c3ccc(Nc4ncc(Cl)c(Nc5cc(Cl)ccc5NS(C)(=O)=O)n4)cc3F)CC2)CC1 [Example 84, N-(4-chloro-2-((5-chloro-2-((3-fluoro-4-(4-(4-methylpiperazin-1-yl)piperidin-1-yl)phenyl)amino)pyrimidin-4-yl)amino)phenyl)methanesulfonamide] | 0.1 to 0.5 | 0.1 to 0.5 | 0.5 to 2 | 0.1 to 0.5 |
| COc1cc(N2CCC(N3CCC(N(C)C)C3)CC2)c(C)cc1Nc1ncc(Br)c(Nc2cc(Cl)ccc2NS(C)(=O)=O)n1 (centres unmarked) [Example 91, N-(2-((5-bromo-2-((4-(4-(3-(dimethylamino)pyrrolidin-1-yl)piperidin-1-yl)-2-methoxy-5-methylphenyl)amino)pyrimidin-4-yl)amino)-4-chlorophenyl)methanesulfonamide] | 0.001 to 0.025 | 0.025 to 0.1 | 2 to 10 | 0.1 to 0.5 |
| COc1cc(N2CCC(N3CCN(C)CC3)CC2)c(F)cc1Nc1ncc(Br)c(Nc2cc(Cl)ccc2NS(C)(=O)=O)n1 [Example 92, N-(2-((5-bromo-2-((5-fluoro-2-methoxy-4-(4-(4-methylpiperazin-1-yl)piperidin-1-yl)phenyl)amino)pyrimidin-4-yl)amino)-4-chlorophenyl)methanesulfonamide] | 0.001 to 0.025 | 0.025 to 0.1 | 2 to 10 | 0.1 to 0.5 |
| Cc1cc(Nc2ncc(Br)c(Nc3cc(Cl)ccc3NS(C)(=O)=O)n2)c(Cl)cc1N1CCC(N2CCN(C)CC2)CC1 [Example 93, N-(2-((5-bromo-2-((2-chloro-5-methyl-4-(4-(4-methylpiperazin-1-yl)piperidin-1-yl)phenyl)amino)pyrimidin-4-yl)amino)-4-chlorophenyl)methanesulfonamide] | 0.001 to 0.025 | 0.025 to 0.1 | 2 to 10 | 0.5 to 2 |
| Cc1cc(Nc2ncc(Br)c(Nc3cc(Cl)ccc3NS(C)(=O)=O)n2)c(Cl)cc1N1CCC(N2CCC(N(C)C)C2)CC1 (centres unmarked) [Example 96, N-(2-((5-bromo-2-((2-chloro-4-(4-(3-(dimethylamino)pyrrolidin-1-yl)piperidin-1-yl)-5-methylphenyl)amino)pyrimidin-4-yl)amino)-4-chlorophenyl)methanesulfonamide] | 0.5 to 2 | 0.5 to 2 | > 10 | 0.5 to 2 |
| COc1cc(N2CCC(N3CCN(C)CC3)CC2)c(C)cc1Nc1ncc(Cl)c(Nc2cc(Cl)c(Cl)cc2NS(C)(=O)=O)n1 [Example 99, N-(4,5-dichloro-2-((5-chloro-2-((2-methoxy-5-methyl-4-(4-(4-methylpiperazin-1-yl)piperidin-1-yl)phenyl)amino)pyrimidin-4-yl)amino)phenyl)methanesulfonamide] | 0.025 to 0.1 | 0.025 to 0.1 | > 10 | 0.5 to 2 |
| COc1nc(N2CCC(N3CCN(C)CC3)CC2)c(C)cc1Nc1ncc(Cl)c(Nc2cc(Cl)c(Cl)cc2NS(C)(=O)=O)n1 [Example 100] | 0.1 to 0.5 | 0.1 to 0.5 | 2 to 10 | 0.5 to 2 |
| CN1CCN(C2CCN(c3ccc(Nc4ncc(Cl)c(Nc5cc(Cl)c(Cl)cc5NS(C)(=O)=O)n4)cc3F)CC2)CC1 [Example 101, N-(4,5-dichloro-2-((5-chloro-2-((3-fluoro-4-(4-(4-methylpiperazin-1-yl)piperidin-1-yl)phenyl)amino)pyrimidin-4-yl)amino)phenyl)methanesulfonamide] | 0.1 to 0.5 | 0.1 to 0.5 | 2 to 10 | 0.1 to 0.5 |
| CN1CCN(C2CCN(c3ccc4cc(Nc5ncc(Cl)c(Nc6cc(Cl)c(Cl)cc6NS(C)(=O)=O)n5)ccc4n3)CC2)CC1 [Example 102, N-(4,5-dichloro-2-((5-chloro-2-((2-(4-(4-methylpiperazin-1-yl)piperidin-1-yl)quinolin-6-yl)amino)pyrimidin-4-yl)amino)phenyl)methanesulfonamide] | 0.5 to 2 | 0.1 to 0.5 | 2 to 10 | 0.5 to 2 |
| COc1cc(N2CCC(N3CCN(C)CC3)CC2)c(Cl)cc1Nc1ncc(Cl)c(Nc2cc(Cl)c(Cl)cc2NS(C)(=O)=O)n1 [Example 103] | 0.1 to 0.5 | 0.025 to 0.1 | 2 to 10 | 0.5 to 2 |
| COc1cc(N2CCC(N(C)CCN(C)C)CC2)c(C)cc1Nc1ncc(Cl)c(Nc2cc(Cl)c(Cl)cc2NS(C)(=O)=O)n1 [Example 104, N-(4,5-dichloro-2-((5-chloro-2-((4-(4-((2-(dimethylamino)ethyl)(methyl)amino)piperidin-1-yl)-2-methoxy-5-methylphenyl)amino)pyrimidin-4-yl)amino)phenyl)methanesulfonamide] | 0.5 to 2 | 0.5 to 2 | 0.5 to 2 | 0.5 to 2 |
| COc1cc(N(C)CCCN2CCN(C)CC2)c(C)cc1Nc1ncc(Cl)c(Nc2cc(Cl)c(Cl)cc2NS(C)(=O)=O)n1 [Example 105, N-(4,5-dichloro-2-((5-chloro-2-((2-methoxy-5-methyl-4-(methyl(3-(4-methylpiperazin-1-yl)propyl)amino)phenyl)amino)pyrimidin-4-yl)amino)phenyl)methanesulfonamide] | > 10 | > 10 | > 10 | > 10 |
| COc1cc(N2CCC(N3CCN(C)CC3)CC2)c(C)cc1Nc1ncc(Br)c(Nc2cc(C)ccc2NS(C)(=O)=O)n1 [Example 106, N-(2-((5-bromo-2-((2-methoxy-5-methyl-4-(4-(4-methylpiperazin-1-yl)piperidin-1-yl)phenyl)amino)pyrimidin-4-yl)amino)-4-methylphenyl)methanesulfonamide] | 0.001 to 0.025 | 0.025 to 0.1 | 0.5 to 2 | 0.5 to 2 |

— patent US20240228458A1, “PYRIMIDINE DERIVATIVE HAVING PROTEIN KINASE INHIBITORY ACTIVITY, AND THERAPEUTIC PHARMACEUTICAL COMPOSITION COMPRISING SAME” (THERAPEX CO., LTD., priority 2021, published 2024)
